Drawing on patent US7022718B2, “Pyridine and pyrimidine derivatives” (Hoffmann-La Roche Inc., priority 2002, dated 2006), this text covers IC50 for eight molecules.

Chain of human DPP-IV (P27487 31-766): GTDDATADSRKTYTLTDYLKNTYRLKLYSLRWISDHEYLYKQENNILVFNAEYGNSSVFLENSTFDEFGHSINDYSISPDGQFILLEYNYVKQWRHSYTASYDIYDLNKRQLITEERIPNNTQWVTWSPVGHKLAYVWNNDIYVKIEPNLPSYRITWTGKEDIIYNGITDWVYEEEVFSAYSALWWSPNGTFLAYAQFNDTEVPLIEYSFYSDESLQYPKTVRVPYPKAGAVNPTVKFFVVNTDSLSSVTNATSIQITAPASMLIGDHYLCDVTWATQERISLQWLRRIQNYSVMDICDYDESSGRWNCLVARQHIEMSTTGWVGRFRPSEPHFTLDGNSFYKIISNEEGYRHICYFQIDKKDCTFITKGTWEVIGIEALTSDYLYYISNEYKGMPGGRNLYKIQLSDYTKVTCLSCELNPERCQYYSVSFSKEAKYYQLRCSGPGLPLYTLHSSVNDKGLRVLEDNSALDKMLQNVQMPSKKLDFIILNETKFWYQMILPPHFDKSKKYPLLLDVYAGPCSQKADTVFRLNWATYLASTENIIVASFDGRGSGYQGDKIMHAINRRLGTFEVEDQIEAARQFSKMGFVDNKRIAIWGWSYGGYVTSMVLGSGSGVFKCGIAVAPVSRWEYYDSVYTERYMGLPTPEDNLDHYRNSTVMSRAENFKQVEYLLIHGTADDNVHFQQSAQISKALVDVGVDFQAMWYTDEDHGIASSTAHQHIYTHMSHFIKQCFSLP

One test addresses human DPP-IV (Homo sapiens, UniProt P27487). In words: DPP-IV activity assay (fluorometric / colorimetric), IC50 determination.
Details: not given
Regarding `Cc1ccc(-c2nc(-c3ccccc3)nc(N)c2CN)c(C)c1` [Example 11, 5-Aminomethyl-6-(2,4-dimethyl-phenyl)-2-phenyl-pyrimidin-4-ylamine], half-maximal inhibition (IC50) was put at 172 nM.

Take `NCc1c(N)nc(-c2cc3ccccc3o2)nc1-c1ccc(Cl)cc1Cl` [Example 16, 5-Aminomethyl-2-benzofuran-2-yl-6-(2,4-dichloro-phenyl)-pyrimidin-4-ylamine]: the IC50 was 0.7 nM.

In turn, `NCc1c(N)nc(N2CCCCCC2)nc1-c1ccc(Cl)cc1Cl` [Example 20, 5-Aminomethyl-2-azepan-1-yl-6-(2,4-dichloro-phenyl)-pyrimidin-4-ylamine] showed an IC50 of 3 nM.

Molecule `CSc1nc(N)c(CN)c(-c2ccc(Cl)cc2Cl)n1` [Example 23, 5-Aminomethyl-6-(2,4-dichloro-phenyl)-2-methylsulfanyl-pyrimidin-4-ylamine] showed an IC50 of 13 nM.

As to `CCc1ccc(-c2nc(-c3ccccc3)nc(N)c2CN)cc1` [Example 43, 5-Aminomethyl-6-(4-ethyl-phenyl)-2-phenyl-pyrimidin-4-ylamine], the IC50 is 389 nM.

Take `CNCc1c(N)nc(-c2ccccc2)nc1-c1ccc(Cl)cc1Cl` [Example 76, 6-(2,4-Dichloro-phenyl)-5-methylaminomethyl-2-phenyl-pyrimidin-4-ylamine]: the IC50 came out at 391 nM.

Consider `Cc1c(-c2ccccc2)nc(N)c(CN)c1-c1ccc(Cl)cc1Cl` [Example 79, 3-Aminomethyl-4-(2,4-dichloro-phenyl)-5-methyl-6-phenyl-pyridin-2-ylamine], for which the IC50 stood at 873 nM.

Still in this test, the particulars now being: natural human DPP-IV from human plasma pool or recombinant human DPP-IV; 37° C., pH 7.8.
As for `NCc1c(N)nc(-c2cccc(F)c2)nc1-c1ccc(Cl)cc1Cl` [Example 13, 5-Aminomethyl-6-(2,4-dichloro-phenyl)-2-(3-fluoro-phenyl)-pyrimidin-4-ylamine], the IC50 was found to be 0.2 nM.

For orientation: IC50 means the concentration at which inhibition is half-maximal.
